Data set [1] is described as follows: Example 9: 2,6-dimethylaniline standard in different color glassware, electrochemical detection. Conditions: for Observed Concentration of Standard: prepared at 3 ng/mL. Type of data set: physicochemical. The protocol:
For analysis, an aliquot of formulation was diluted 250 times with an aqueous buffer/methanol/acetonitrile diluent. After solubilization of the sample, a small aliquot is transferred into an HPLC vial for analysis using an electrochemical detector.
A series of experiments was conducted examining the effects of amber and red colored glassware on the stability of the 2,6-dimethylaniniline reference standard, using electrochemical detection, at a concentration of 3 ng/mL in an aqueous buffer/methanol solution.
In Experiment 1, the 2,6-dimethylaniline was prepared at a concentration of 3 ng/mL in a clear, colorless glass 100 mL volumetric flask. Aliquots were transferred into clear HPLC glass vials, and assayed against external standards. The 3 injections of the 2,6-dimethylaniline were consistently near 3 ng/mL.
In Experiment 2, the 2,6-dimethylaniline solution at 3 ng/mL prepared in a clear, colorless glass 100 mL volumetric flask was transferred to amber HPLC vials.
An aliquot was transferred into a clear HPLC glass vial, and assayed against external standards. The sample injection had the same 2,6-dimethylaniline concentration value as that in Experiment 1.
In Experiment 4, the 2,6-dimethylaniline solution at 3 ng/mL prepared in the red colored glass 100 mL volumetric flask coated with RAY-SORB® was transferred to an amber HPLC vial.

Data set [2] concerns bacterial reverse mutation. As to the kind of experiment: In vitro bacterial reverse mutation assay (Ames assay). It counts as cell-based. From the text: (§1) Bupivacaine was negative in the in vitro bacterial reverse mutation assay (Ames assay), the in vitro chromosomal aberration assay (human peripheral blood lymphocytes, and the in vivo rat micronucleus assay.
(The Ames test uses bacterial strains that need an amino acid and regain growth without it when mutated back.)

The subject of a further data set is rat micronucleus. In words: In vivo rat micronucleus assay.
Source text: as §1

For data set [3] the following is noted: cited from earlier work.
Data set [4] relates to patients undergoing elective arthroscopic shoulder surgery. In words: Example 1 / Study 1: pain intensity and opioid rescue after arthroscopic shoulder surgery. Type of data set: in vivo, human. As to conditions: 0-72 hours after surgery; ITT.
A further data set deals with pregnant rabbits. As to the kind of experiment: Embryo-fetal development study, subcutaneous, rabbits. Type of data set: in vivo. As to conditions: pregnant rabbits, subcutaneous; MRHD 660 mg. As to the method: (§2) There are no studies conducted with Formulation A in pregnant women. […] Based on animal data, advise pregnant women of the potential risks to a fetus. [see Data]
Bupivacaine hydrochloride was administered subcutaneously to rats at doses of 4.4, 13.3, & 40 mg/kg and to rabbits at doses of 1.3, 5.8, & 22.2 mg/kg during the period of organogenesis (implantation to closure of the hard palate). The high doses are approximately 0.6 times the daily maximum recommended human dose (MRHD) of 660 mg/day on a mg/m^2 body surface area (BSA) basis.

Data set [5] can be described thus: clinical. As to conditions: human, in vivo. As to the method:
Additionally, alpha 1 acid glycoprotein (AAG) plasma concentrations were measured in these two groups for correlation with free bupivacaine concentrations.
Using non-compartmental methods the following PK parameters were calculated from the plasma concentrations of each compound: area under the plasma concentration vs. time curve until the last measured concentration (AUCt), area under the plasma concentration vs. time curve extrapolated until infinity (AUCinf), the maximum concentration (Cmax), the time of its occurrence (tmax) and the apparent terminal elimination half-life (t1/2). […] The average […] of bupivacaine was approximately 5.2%; free bupivacaine plasma concentrations generally paralleled those of total bupivacaine. There was a large interindividual variability of Cmax of both total and free bupivacaine. […] Note: Table 1.5 presents Geometric mean, ±68th percentile for Cmax rather than absolute min,max.

The nature of data set [6]: clinical. Conditions: human, in vivo. From the text:
Both bupivacaine and benzyl alcohol have been reported to be excreted in human milk.
Bupivacaine appears to cross the placenta by passive diffusion. The rate and degree of diffusion is governed by (1) the degree of plasma protein binding, (2) the degree of ionization, and (3) the degree of lipid solubility. Fetal/maternal ratios of local anesthetics appear to be inversely related to the degree of plasma protein binding, because only the free, unbound drug is available for placental transfer. Bupivacaine with a high protein binding capacity (95%) has a low fetal/maternal ratio (0.2 to 0.4). The extent of placental transfer is also determined by the degree of ionization and lipid solubility of the drug. Lipid soluble, non-ionized drugs such as bupivacaine readily enter the fetal blood from the maternal circulation.
The kidney is the main excretory organ for most local anesthetics and their metabolites. Urinary excretion is affected by urinary perfusion and factors affecting urinary pH. Only 6% of bupivacaine is excreted unchanged in the urine.
The source holds these as a separate data set.

The subject of data set [7] is human peripheral blood lymphocytes. As to the kind of experiment: In vitro chromosomal aberration assay. Type of data set: cell-based.
Source text: as §1

For a further data set, the system named is rats. In words: Rat pre- and post-natal development study. It counts as in vivo. As to conditions: rat; MRHD 660 mg. The protocol:
as §2
The high dose is approximately 0.6 times the daily MRHD of 660 mg/day on a BSA basis.

Data set [8] in a line: Example 14: peroxide content of SAIB / benzyl alcohol versus bupivacaine N-oxide. It counts as physicochemical. As to the method:
Placebo compositions were composed of 75% w/w sucrose acetate isobutyrate (SAIB), and 25% w/w benzyl alcohol. Bupivacaine N-oxide in the sustained release bupivacaine compositions can be formed by an oxidative reaction between bupivacaine and peroxides.
The peroxide content for several lots of sucrose acetate isobutyrate were determined by potentiometric titration involving iodometric titration. The bupivacaine N-oxide levels in samples of Formulation A were determined using HPLC with UV detection.
All of the benzyl alcohol compositions had peroxide values of less than […]. The peroxide value can be converted to peroxide content, expressed as hydrogen peroxide, by multiplying PV by 17. […] The maximum contribution to peroxide content from benzyl alcohol is 85 ppm divided by 3, or 28 ppm.

Data set [9] can be described thus: Example 16: in vitro cumulative release of bupivacaine (USP Apparatus II). It counts as physicochemical. As to conditions: oven at 225° C. for 4 hours. From the text: To compare dissolution profiles, formulations having 12% w/w bupivacaine but differing ratios of sucrose acetate isobutyrate (SAIB)/solvent were made and tested as described in the below Methods and Materials. Table 16.1 is a summary of the compositions of the formulations tested.
To compare dissolution profiles, formulations having 12% w/w bupivacaine but differing ratios of sucrose acetate isobutyrate (SAIB)/solvent were made and tested as described below. Table 16.3 is a summary of the compositions of the formulations tested.
To compare dissolution profiles, a control formulation and a heat-stressed SAIB formulation were made and tested as described the below Methods and Materials. Both the control and heat-stressed SAIB formulations nominally consisted of 12% w/w bupivacaine, 22% w/w benzyl alcohol, and 66% w/w SAIB.
The bupivacaine formulations, other than the heat-stressed formulation, were prepared by dissolving appropriate amounts of bupivacaine in appropriate amounts of benzyl alcohol (BA), adding an appropriate amount of sucrose acetate isobutyrate (SAIB), and stirring not less than 45 minutes at about 35° C. For the heat-stressed SAIB formulation, the same process was followed except the SAIB was pre-heated in an oven at 225° C. for 4 hours before use. […]
Dissolution was measured using a USP Apparatus II. […]

Data set [10] is described as follows: Example 11: metal content by ICP-MS. Type of data set: physicochemical. The protocol:
Sucrose acetate isobutyrate was tested for metal content as follows. The sample was prepared with a 0.1 g weighed portion mixed with 2 mL nitric acid and 0.5 mL hydrochloric acid for 1 hour on a block digestor set at 110° C. After cooling, 0.5 mL of 30% hydrogen peroxide was added, and the digestion resumed for 30 minutes (the material appeared dissolved). After cooling, internal standard solution was added and dilution with purified water to 20 g produced a solution for ICP-MS analysis. The results are shown below:
Formulation A was compounded using steel compounding tanks. Silicone tubing was used to transfer Formulation A. Formulation A was filled into glass vials, which were then sealed with fluorocarbon-coated stoppers.
Formulation A was tested for metal content as follows. The sample was prepared with a 0.2 g weighed portion mixed with 2 mL nitric acid, 1 mL hydrochloric acid, and 1 mL hydrofluoric acid, then digested in a closed-vessel microwave system (the material appeared dissolved). After cooling, internal standard solution was added and dilution with purified water to 50 g produced a solution for ICP-MS analysis.

Where “and” joins values, the source holds several entries; their conditions need not be identical. Equal entries are not always repeated.

On to `Cc1cccc(C)c1N` [2,6-Dimethlylaniline Standard], for which the “Observed Concentration of Standard” value in data set [1] (Experiment 1, Clear volumetric flask, Clear HPLC vial) was 3.0 ng/mL and 3.1 ng/mL; in data set [1] (Experiment 2, Clear volumetric flask, Amber HPLC vial) it was 24.5 ng/mL and 28.4 ng/mL and 34.6 ng/mL and 38.1 ng/mL; in [1] (Experiment 3, Red volumetric flask, Clear HPLC vial), 3.0 ng/mL; in data set [1] (Experiment 4, Red volumetric flask, Amber HPLC vial), 14.9 ng/mL.

Regarding `Cc1cccc(C)c1N` [2,6-dimethylaniline], the “2,6-dimethylaniline concentration found” value in [1] (Experiment 1: clear flask, clear HPLC vials, 3 ng/mL prepared) is on record as around 3 ng/mL. Besides, the “2,6-dimethylaniline concentration relative to Experiment 1” value in data set [1] (Experiment 3: red RAY-SORB flask, clear HPLC vial) was “same”. The “2,6-dimethylaniline content relative to Experiments 1 and 3” value in [1] (Experiment 4: red RAY-SORB flask, amber HPLC vial) is “approximately 5 times higher”.

Broadly, the fraction unbound is free concentration divided by total concentration. A high value points to much free substance. As a reminder, the Cmax is the maximum level reached in the sampled fluid or tissue. Regarding `CCCCN1CCCCC1C(=O)Nc1c(C)cccc1C` (centres unmarked) [Bupivacaine, 1-butyl-N-(2,6-dimethylphenyl)-2-piperidinecarboxamide], in data set [2], the “Bacterial reverse mutation assay (Ames assay) result” value is reported as “negative”. Also, the “Rat micronucleus assay result” value in the data set with rat micronucleus is recorded as “negative”. Further, the “Excreted unchanged in the urine” value in data set [3] (human, in vivo) is on record as 6%. Also, in data set [3] (plasma), the Protein binding capacity is reported as 95%. Moreover, the “Total IV morphine equivalent dose of opioid rescue medication, median” value in data set [4] worked out at 8 mg. For the same compound, the “Dose with embryo-fetal lethality” value in the data set on pregnant rabbits is listed as 0.6 times the maximum recommended human dose. In the data set “clinical [5]”, this compound showed a fraction unbound of around 0.052. Further, in “clinical [6]”, the peak concentration (Cmax) is 2850 ng/mL. Besides, the “Chromosomal aberration assay result” value in data set [7] is “negative”. Also, the “Dose with decreased pup survival” value in the data set with rats was 0.6 times the maximum recommended human dose.

Consider `OCc1ccccc1` [benzyl alcohol], for which the “Peroxide content, expressed as hydrogen peroxide” value in [8] (PV multiplied by 17) was below 8.5 ppm. Moreover, the “Peroxide value (PV)” value in data set [8] (all lots) is listed as “less than 0.5”. Further, the “Effective peroxide contribution to formation of bupivacaine N-oxide” value in data set [8] (divided by 3) is recorded as below 2.8 ppm.

On to sucrose acetate isobutyrate [SAIB], for which the “SAIB remaining after pre-heating” value in data set [9] came to 98%. Further, the Gold in data set [10] (Detection Limit 0.02) turned out to be 0.4 ppm. Also, in data set [10] (Detection Limit 0.04), the Tin worked out at 0.0 ppm. This compound also returned an Iron in data set [10] (Detection Limit 1) of 2 ppm. Besides, in data set [8] (linear regression, FIG. 14), the “Peroxide content in SAIB corresponding to 0.8% bupivacaine N-oxide” value is given as 232.5 ppm and the “Peroxide in SAIB corresponding to the 1.0% specification limit for bupivacaine N-oxide” value turned out to be 296.4 ppm.

The values are drawn from patent publication US12433877B2, “Sustained release drug delivery systems and related methods” (Durect Corporation, priority 2021, dated 2025).
